Data taken from patent US10842151B2, “Small molecule compound for enhancing plant stress resistance” (SHANGHAI INSTITUTES FOR BIOLOGICAL SCIENCES, CHINESE …, priority 2015, dated 2020).

How the values were obtained:
[1] = test system: soybean GmPYL3 and GmPYL6 + Arabidopsis AtHAB1; assay: AlphaScreen experiment with soybean GmPYL receptors; assay type: binding; details: FIG. 9
Method: (§1) After incubating for 1.5 hours at room temperature in the dark, it was placed into an Envision Plate Reader (available from Perkin Elmer) under the programmed AlphaScreen procedure for readings.

PYL2 + HAB1 = target: T1, PYL2 + HAB1 (Arabidopsis thaliana, UniProt O80992); assay: AlphaScreen experiment, PYL2 + HAB1; assay type: binding; details: number in brackets; read-out: Half maximum effect concentration EC50 (PYL2 + HAB1)
T1 construct: made in house; host or cells: E. coli BL21 (DE3)
T1 sequence (O80992 14-188 limits assumed): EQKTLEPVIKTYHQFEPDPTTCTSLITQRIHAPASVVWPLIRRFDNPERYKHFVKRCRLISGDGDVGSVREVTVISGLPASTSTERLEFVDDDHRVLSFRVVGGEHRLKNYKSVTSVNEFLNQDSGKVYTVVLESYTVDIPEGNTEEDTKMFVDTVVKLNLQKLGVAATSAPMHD
T1 sequence (Q9CAJ0 172-511 partner limits assumed): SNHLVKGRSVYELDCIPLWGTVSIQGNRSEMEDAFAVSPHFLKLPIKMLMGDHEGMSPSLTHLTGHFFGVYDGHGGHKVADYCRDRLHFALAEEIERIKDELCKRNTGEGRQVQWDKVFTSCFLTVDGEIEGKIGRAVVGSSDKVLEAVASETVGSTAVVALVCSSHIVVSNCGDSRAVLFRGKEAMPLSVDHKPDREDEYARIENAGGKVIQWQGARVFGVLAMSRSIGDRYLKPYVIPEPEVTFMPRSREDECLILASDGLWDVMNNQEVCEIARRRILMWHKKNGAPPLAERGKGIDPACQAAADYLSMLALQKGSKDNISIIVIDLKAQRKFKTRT
Method: as §1

soybean Williams 82 = assay: Soybean leaf transpiration experiment (thermal imaging); assay type: in vivo; details: 50 μM sprayed, 0.2 μmol per plant; after three days; vs DMSO
Method: After three weeks of continuous watering, 0.05% tween-20 and corresponding concentrations of DMSO (control)/compound (+)-ABA/0918/1127 were sprayed onto the plants in a single administration with an amount of 1.2 ml/pot. Images were taken daily using the FLIR A655sc thermal imaging camera at the same time before and after spraying. The Williams 82 ecotype was used in soybean leaf transpiration experiments for compounds 0604c, 0918 and 1127 and was long-day cultured at 26° C. After the plants grew and had 3 leaves in each of 3 groups, 0.05% tween-20 and 50 μM DMSO (control)/(+)-ABA/0604c/0918/1127 compounds were sprayed in a single administration with an amount of 4 ml/pot. Images were taken daily using the FLIR A655sc thermal imaging camera at the same time before and after spraying.
Leaf transpiration experiments of soybean and cotton for compound 0720B were carried out at 26° C. with long-day lighting. 16 days and 23 days after sowing, a solution containing 0.1% tween-20 and corresponding concentration of (+)-ABA, or 0720B compound or 0.1% Tween-20 and 0.05% DMSO (control) was sprayed in an amount of 4 ml/pot. Images were taken daily using the FLIR A655sc thermal imaging camera at the same time before and after spraying.

[2] = test system: pyr1;pyl1;pyl4 triple mutant seeds; assay: Seed germination, PYR/PYL triple mutant; assay type: in vivo, Arabidopsis thaliana; details: 1 μM; six days after seeding
Excerpt: (§2) Two lines of plant were sown simultaneously on a single medium of 6 cm diameter, with 15 seeds sown for each line and 4 replicates for each compound. […]

[3] = test system: Salmonella typhimurium TA98 and TA100; assay: Bacterial reverse mutation experiment; assay type: cell-based; details: all doses; -S9
Method: The test substance used in the experiment was AMX compound 1127.
Two strains of Salmonella typhimurium, TA98 and TA100, were used in the bacterial reverse mutation experiment. The experiment was carried out by using standard plate incorporation method under a condition of non-metabolic activation system (−S9). There were totally 7 doses of […] as well as a negative control and a positive control.

[4] = test system: Arabidopsis ABA synthesis defective mutant aba2-1; assay type: in vivo, Arabidopsis thaliana; details: 5 μM sprayed; after 4 days; vs DMSO
[5] = test system: Arabidopsis thaliana Col-0 ecotype seeds; assay: Seed germination, Col-0; assay type: in vivo; details: 1 μM
Excerpt: as §2

PYL7 + HAB1 = target: T2, PYL7 + HAB1 (Arabidopsis thaliana, UniProt Q1ECF1); assay: AlphaScreen experiment, PYL7 + HAB1; assay type: binding; details: number in brackets; read-out: Half maximum effect concentration EC50 (PYL7 + HAB1)
T2 construct: made in house; host or cells: E. coli BL21 (DE3)
T2 sequence (Q1ECF1 1-211): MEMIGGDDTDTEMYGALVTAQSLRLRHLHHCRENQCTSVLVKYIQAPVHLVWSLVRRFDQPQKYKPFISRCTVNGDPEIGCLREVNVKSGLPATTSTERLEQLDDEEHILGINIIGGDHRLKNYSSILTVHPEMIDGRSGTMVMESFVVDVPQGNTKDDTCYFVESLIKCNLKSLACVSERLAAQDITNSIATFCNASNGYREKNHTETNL
T2 sequence (Q9CAJ0 172-511 partner limits assumed): T1 sequence (Q9CAJ0 172-511 partner limits assumed)
Method: as §1

SMILES: CCCN1C(=O)CCc2cc(NS(=O)(=O)Cc3c(F)c(F)c(C)c(F)c3F)ccc21 [Compound 1127]
- affinities for soybean GmPYL proteins compared with ABA [1]: significantly higher affinities
- EC50 (PYL2 + HAB1): 0.02 µM
- leaf temperature (soybean Williams 82): still significantly higher than that in the DMSO-sprayed control
- germination of pyr1;pyl1;pyl4 triple mutant seeds [2]: could not inhibit germination of PYR/PYL triple mutant pyr1;pyl1;pyl4 seeds
- bacterial toxicity to TA98 and TA100 strains [3]: no obvious bacterial toxicity
- leaf temperature [4]: still higher than that in the control group
- inhibition effect on germination of Col-0 ecotype seeds compared with control compound [5]: significantly better inhibition effect
- germination of Col-0 ecotype seeds ([5]; six days after seeding): could still inhibit germination of Col-0 ecotype seeds
- EC50 (PYL7 + HAB1): 0.01 µM
